In patent US9309242B2, “Substituted pyrido[2,3-b]pyrazines as FGFR kinase inhibitors” (priority 2011, dated 2016):
Structures can show the parent of a compound that is named as a salt. Where two headings read alike, the source gives them in different places.

What was measured:
[1] = target: Ba/F3-FGFR4-transfected cells (Homo sapiens, UniProt P22455); experiment: Ba/F3-FGFR4 cellular proliferation assay, Alamar Blue; type: cell-based
Description: Ba/F3-FGFR4 (Cellular Proliferation Assay)
(§1) In a 384 well plate, 100 n1 of compound dilution in DMSO was sprayed before adding 50 μl cell culture medium (phenol red free RPMI-1640, 10% FBS, 2 mM L-Glutamine and 50 μg/ml Gentamycin) containing 20000 cells per well of Ba/F3-FGFR4-transfected cells. Cells were put in an incubator at 37° C. and 5% CO2. After 24 hours, 10 μl of Alamar Blue solution (0.5 mM K3Fe(CN)6, 0.5 mM K4Fe(CN)6, 0.15 mM Resazurin and 100 mM Phosphate Buffer) was added to the wells, incubated for 4 hours at 37° C. and 5% CO2 before RFU's (Relative Fluorescence Units) (ex. 540 nm., em. 590 nm.) were measured in a fluororescence plate reader.

[2] = target: FGFR3 (h) (Homo sapiens, UniProt P22607); experiment: FGFR3 (enzymatic assay), TR-FRET; type: biochemical; details: read-out: FGFR 3 pIC50 (converted)
Excerpt: Time-Resolved Fluorescence Resonance Energy Transfer (TR-FRET) signal (ex340 nm.

[3] = target: T1, Ba/F3-FGFR3-transfected cells (Homo sapiens, UniProt P22607); experiment: Ba/F3-FGFR3 (minus IL3) cellular proliferation assay, Alamar Blue; type: cell-based
T1 construct: BAF3-FGFR3 (MIN IL3) pIC50; other: minus IL3
Description: (§2) Ba/F3-FGFR3 (Minus IL3 or Plus IL3) (Cellular Proliferation Assay)
as §1, with “nl” for “n1”, “Ba/F3-FGFR3-transfected” for “Ba/F3-FGFR4-transfected”, “reader. […]” for “reader.”

[4] = test system: Ba/F3-FGFR1-transfected cells; experiment: Ba/F3-FGFR1 (plus IL3) cellular proliferation assay, counterscreen with 10 ng/ml murine IL3; type: cell-based; details: plus IL3 (10 ng/ml murine IL3, counterscreen)
Description: (§3) Ba/F3-FGFR1 (Minus IL3 or Plus IL3) (Cellular Proliferation Assay)
as §1, with “nl” for “n1”, “Ba/F3-FGFR1-transfected” for “Ba/F3-FGFR4-transfected”
(§4) As a counterscreen the same experiment was performed in the presence of 10 ng/ml murine IL3.

[5] = target: T2, Ba/F3-FGFR1-transfected cells (Homo sapiens, UniProt P11362); experiment: Ba/F3-FGFR1 (minus IL3) cellular proliferation assay, Alamar Blue; type: cell-based
T2 construct: BAF3-FGFR1 (MIN IL3) pIC50; other: minus IL3
Description: as §3
as §1, with “nl” for “n1”, “Ba/F3-FGFR1-transfected” for “Ba/F3-FGFR4-transfected”

[6] = target: FGFR1 (h) (Homo sapiens, UniProt P11362); experiment: FGFR1 (enzymatic assay), TR-FRET; type: biochemical; details: read-out: FGFR 1 pIC50 (converted)
[7] = target: KDR (h) (Homo sapiens, UniProt P35968); experiment: KDR (VEGFR2) (enzymatic assay), TR-FRET; type: biochemical; details: read-out: VEGFR 2 (KDR) pIC50 (converted)
Description: KDR (VEGFR2) (Enzymatic Assay)
In a final reaction volume of 30 μL, KDR (h) (150 ng/ml) was incubated with 50 mM HEPES pH 7.5, 6 mM MnCl2, 1 mM DTT, 0.1 mM Na3VO4, 0.01% Triton-X-100, 500 nM Btn-Flt3 and 3 μM ATP in the presence of compound (1% DMSO final). After incubation for 120 minutes at room temperature the reaction was stopped with 2.27 nM EU-anti P-Tyr, 7 mM EDTA, 31.25 nM SA-XL-665 and 0.02% BSA which was present for 60 minutes at room temperature. Time-Resolved Fluorescence Resonance Energy Transfer (TR-FRET) signal (ex340 nm. Em 620 nm, em 655 nm) was measured afterwards and results are expressed in RFU (Relative Fluorescence Units).

[8] = test system: Ba/F3-FGFR3-transfected cells; experiment: Ba/F3-FGFR3 (plus IL3) cellular proliferation assay, counterscreen with 10 ng/ml murine IL3; type: cell-based; details: plus IL3 (10 ng/ml murine IL3, counterscreen)
Description: as §2
as §1, with “nl” for “n1”, “Ba/F3-FGFR3-transfected” for “Ba/F3-FGFR4-transfected”
as §4

[9] = target: FGFR2 (h) (Homo sapiens, UniProt P21802); experiment: FGFR2 (enzymatic assay), TR-FRET; type: biochemical; details: enzymatic assay, read-out: FGFR 2 pIC50 (converted)
Description: In a final reaction volume of 30 μL, FGFR2 (h) (150 ng/ml) was incubated with 50 mM HEPES pH 7.5, 6 mM MnCl2, 1 mM DTT, 0.1 mM Na3VO4, 0.01% Triton-X-100, 500 nM Btn-Flt3 and 0.4 μM ATP in the presence of compound (1% DMSO final).

[10] = test system: Ba/F3-KDR-transfected cells; experiment: Ba/F3-KDR (plus IL3) cellular proliferation assay, counterscreen with 10 ng/ml murine IL3; type: cell-based; details: plus IL3 (10 ng/ml murine IL3, counterscreen)
Description: (§5) Ba/F3-KDR (Minus IL3 or Plus IL3) (Cellular Proliferation Assay)
as §1, with “Ba/F3-KDR-transfected” for “Ba/F3-FGFR4-transfected”
as §4

[11] = target: FGFR4 (h) (Homo sapiens, UniProt P22455); experiment: FGFR4 (enzymatic assay), TR-FRET; type: biochemical; details: FGFR 4 pIC50, enzymatic assay
[12] = target: T3, Ba/F3-KDR-transfected cells (Homo sapiens, UniProt P35968); experiment: Ba/F3-KDR (minus IL3) cellular proliferation assay, Alamar Blue; type: cell-based
T3 construct: BAF3-KDR (MIN IL3) pIC50; other: minus IL3
Description: as §5
as §1, with “Ba/F3-KDR-transfected” for “Ba/F3-FGFR4-transfected”, “reader. […]” for “reader.”

[13] = average values if tested multiple times

T3 sequence (P35968 whole entry, change not shown): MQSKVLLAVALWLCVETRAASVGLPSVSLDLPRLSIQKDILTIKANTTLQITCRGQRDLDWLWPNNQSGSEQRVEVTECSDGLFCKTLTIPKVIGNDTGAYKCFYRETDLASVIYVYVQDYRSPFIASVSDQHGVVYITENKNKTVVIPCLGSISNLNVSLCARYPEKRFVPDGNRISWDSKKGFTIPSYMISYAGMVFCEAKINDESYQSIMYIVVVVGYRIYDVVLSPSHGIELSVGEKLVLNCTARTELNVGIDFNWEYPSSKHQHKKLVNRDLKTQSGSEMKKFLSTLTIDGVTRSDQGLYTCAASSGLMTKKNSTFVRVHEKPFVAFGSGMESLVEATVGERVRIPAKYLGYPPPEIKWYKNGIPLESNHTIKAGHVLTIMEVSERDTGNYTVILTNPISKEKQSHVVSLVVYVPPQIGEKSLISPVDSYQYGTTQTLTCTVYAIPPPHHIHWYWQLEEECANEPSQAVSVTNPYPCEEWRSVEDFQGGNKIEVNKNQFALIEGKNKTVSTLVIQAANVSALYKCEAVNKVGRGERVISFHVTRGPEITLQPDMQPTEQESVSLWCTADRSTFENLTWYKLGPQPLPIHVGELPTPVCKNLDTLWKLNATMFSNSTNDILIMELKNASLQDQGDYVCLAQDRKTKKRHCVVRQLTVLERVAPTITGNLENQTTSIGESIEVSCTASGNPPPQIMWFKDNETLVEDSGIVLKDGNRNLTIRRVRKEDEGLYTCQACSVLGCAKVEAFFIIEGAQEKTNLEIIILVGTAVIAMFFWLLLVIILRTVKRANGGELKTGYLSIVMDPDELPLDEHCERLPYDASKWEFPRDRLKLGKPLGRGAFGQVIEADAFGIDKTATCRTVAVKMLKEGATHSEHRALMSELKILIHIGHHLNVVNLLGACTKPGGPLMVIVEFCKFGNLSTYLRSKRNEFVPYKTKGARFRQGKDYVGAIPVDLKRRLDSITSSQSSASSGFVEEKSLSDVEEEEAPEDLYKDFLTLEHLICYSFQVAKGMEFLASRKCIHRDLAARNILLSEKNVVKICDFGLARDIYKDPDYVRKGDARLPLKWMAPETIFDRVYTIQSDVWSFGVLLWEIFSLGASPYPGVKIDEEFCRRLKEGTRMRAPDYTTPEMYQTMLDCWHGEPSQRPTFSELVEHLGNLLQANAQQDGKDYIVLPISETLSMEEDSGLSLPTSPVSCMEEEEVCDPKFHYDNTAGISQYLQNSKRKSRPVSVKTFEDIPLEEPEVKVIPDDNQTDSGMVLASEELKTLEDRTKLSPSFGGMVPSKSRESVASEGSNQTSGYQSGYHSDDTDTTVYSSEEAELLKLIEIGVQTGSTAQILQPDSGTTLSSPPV
T1 sequence (P22607 whole entry, change not shown): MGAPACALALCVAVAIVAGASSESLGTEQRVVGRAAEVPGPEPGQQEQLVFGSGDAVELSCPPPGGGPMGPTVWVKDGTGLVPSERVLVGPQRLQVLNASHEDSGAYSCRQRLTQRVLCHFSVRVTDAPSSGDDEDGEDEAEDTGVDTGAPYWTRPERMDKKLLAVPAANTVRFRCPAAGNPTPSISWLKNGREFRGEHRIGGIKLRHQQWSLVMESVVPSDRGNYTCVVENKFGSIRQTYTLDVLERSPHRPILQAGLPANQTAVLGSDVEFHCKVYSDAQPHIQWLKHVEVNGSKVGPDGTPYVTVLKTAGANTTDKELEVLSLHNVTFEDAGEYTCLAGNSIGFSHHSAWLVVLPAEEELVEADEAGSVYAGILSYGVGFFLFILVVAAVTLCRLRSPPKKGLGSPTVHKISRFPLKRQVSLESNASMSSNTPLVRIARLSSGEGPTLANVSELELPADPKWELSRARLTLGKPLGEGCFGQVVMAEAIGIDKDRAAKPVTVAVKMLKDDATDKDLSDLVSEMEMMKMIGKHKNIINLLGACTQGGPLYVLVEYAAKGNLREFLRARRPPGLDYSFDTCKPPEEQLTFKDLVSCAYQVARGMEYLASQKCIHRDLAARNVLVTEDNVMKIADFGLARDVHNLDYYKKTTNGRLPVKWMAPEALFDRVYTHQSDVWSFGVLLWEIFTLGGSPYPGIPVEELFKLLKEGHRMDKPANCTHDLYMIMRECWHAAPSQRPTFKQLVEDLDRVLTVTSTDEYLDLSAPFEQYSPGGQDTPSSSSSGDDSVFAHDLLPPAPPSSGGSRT
Chain of FGFR4 (h) (P22455 22-802): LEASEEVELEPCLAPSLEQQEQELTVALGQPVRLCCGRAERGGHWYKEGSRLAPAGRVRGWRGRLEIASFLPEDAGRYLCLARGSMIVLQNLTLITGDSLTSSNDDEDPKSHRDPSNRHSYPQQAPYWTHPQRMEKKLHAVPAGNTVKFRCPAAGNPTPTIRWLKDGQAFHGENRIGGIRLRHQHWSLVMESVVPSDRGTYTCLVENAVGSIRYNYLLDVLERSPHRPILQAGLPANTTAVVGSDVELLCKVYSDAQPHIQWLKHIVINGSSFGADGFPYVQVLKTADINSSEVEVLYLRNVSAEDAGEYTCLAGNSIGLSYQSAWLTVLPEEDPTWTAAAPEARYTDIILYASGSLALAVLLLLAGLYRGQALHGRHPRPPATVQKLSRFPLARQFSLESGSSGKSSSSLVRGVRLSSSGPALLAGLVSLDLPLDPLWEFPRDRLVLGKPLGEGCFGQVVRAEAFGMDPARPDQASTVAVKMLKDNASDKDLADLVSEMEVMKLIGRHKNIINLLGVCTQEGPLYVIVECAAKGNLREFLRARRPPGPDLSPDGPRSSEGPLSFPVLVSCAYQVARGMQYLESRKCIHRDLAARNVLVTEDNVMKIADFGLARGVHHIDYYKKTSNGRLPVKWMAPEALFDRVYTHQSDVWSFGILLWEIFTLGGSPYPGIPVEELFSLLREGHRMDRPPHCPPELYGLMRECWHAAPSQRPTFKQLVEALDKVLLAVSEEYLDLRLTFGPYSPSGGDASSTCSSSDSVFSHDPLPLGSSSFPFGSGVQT
Chain of FGFR1 (h) (P11362 22-822): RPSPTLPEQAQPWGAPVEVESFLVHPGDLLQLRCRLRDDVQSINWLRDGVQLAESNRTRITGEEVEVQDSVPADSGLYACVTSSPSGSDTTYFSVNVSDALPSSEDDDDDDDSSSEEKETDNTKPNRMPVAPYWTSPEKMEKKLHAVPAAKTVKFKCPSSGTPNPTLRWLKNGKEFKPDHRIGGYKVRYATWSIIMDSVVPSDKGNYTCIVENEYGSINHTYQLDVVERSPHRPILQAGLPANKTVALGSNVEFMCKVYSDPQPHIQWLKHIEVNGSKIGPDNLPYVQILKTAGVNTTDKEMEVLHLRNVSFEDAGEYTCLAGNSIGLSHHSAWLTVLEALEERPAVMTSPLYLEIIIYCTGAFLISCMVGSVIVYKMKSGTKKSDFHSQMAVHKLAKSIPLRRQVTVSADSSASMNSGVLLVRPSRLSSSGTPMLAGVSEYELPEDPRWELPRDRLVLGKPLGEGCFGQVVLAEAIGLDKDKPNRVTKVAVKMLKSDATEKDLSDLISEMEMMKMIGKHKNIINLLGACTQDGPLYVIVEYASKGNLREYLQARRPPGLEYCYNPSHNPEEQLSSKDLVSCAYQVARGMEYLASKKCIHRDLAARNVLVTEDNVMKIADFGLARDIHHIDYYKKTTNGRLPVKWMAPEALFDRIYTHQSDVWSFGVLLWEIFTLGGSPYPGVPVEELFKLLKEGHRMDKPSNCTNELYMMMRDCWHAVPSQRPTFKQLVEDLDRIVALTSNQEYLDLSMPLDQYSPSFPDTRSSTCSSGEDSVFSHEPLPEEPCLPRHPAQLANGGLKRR
Chain of FGFR2 (h) (P21802 22-821): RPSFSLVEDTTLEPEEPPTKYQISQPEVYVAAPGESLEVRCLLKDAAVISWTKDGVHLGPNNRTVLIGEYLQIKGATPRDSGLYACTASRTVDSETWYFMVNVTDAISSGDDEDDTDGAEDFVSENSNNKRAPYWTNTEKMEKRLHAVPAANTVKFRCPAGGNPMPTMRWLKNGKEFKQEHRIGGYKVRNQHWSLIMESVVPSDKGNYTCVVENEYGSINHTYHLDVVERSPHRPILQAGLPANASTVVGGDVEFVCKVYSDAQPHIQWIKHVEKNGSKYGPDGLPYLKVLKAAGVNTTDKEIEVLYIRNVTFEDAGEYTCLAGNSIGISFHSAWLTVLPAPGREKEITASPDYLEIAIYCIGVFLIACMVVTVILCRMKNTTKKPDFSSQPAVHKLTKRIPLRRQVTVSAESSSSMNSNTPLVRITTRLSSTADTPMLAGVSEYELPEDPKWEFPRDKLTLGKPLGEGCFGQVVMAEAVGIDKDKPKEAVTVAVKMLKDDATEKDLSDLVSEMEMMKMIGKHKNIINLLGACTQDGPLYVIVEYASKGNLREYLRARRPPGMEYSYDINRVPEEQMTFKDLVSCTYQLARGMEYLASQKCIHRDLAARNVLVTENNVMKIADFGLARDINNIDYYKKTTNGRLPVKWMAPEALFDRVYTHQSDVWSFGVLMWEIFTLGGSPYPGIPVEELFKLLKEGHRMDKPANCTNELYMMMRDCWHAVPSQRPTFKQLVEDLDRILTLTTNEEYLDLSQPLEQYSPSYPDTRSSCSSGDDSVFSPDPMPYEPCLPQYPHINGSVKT

COc1cc(OC)cc(N(CC(O)C(F)(F)F)c2ccc3ncc(-c4cnn(C)c4)nc3n2)c1 (single isomer, unassigned) [Compound 34]
BAF3-FGFR4 pIC50 [1]: 6.64 | IC50 [2, 13]: 1.35 nM | BAF3-FGFR3 (MIN IL3) pIC50 [3]: 6.97 | BAF3-FGFR1 (PLUS IL3) pIC50 [4]: <5 | BAF3-FGFR1 (MIN IL3) pIC50 [5]: 7.18 | IC50 [6, 13]: 3.55 nM | IC50 [7, 13]: 331 nM | BAF3-FGFR3 (PLUS IL3) pIC50 [8]: <5 | IC50 [9, 13]: 4.57 nM | BAF3-KDR (PLUS IL3) pIC50 [10]: <5 | IC50 [11, 13]: 7.08 nM | BAF3-KDR (MIN IL3) pIC50 [12]: <5

COCC(O)CN(c1ccc2ncc(-c3cnn(C)c3)nc2n1)c1cc(OC)cc(OC)c1F (single isomer, unassigned) [Compound 59]
BAF3-FGFR4 pIC50 [1]: 7.19 | IC50 [2, 13]: 1.23 nM | BAF3-FGFR3 (MIN IL3) pIC50 [3]: 7.71 | BAF3-FGFR1 (PLUS IL3) pIC50 [4]: <5 | BAF3-FGFR1 (MIN IL3) pIC50 [5]: 7.60 | IC50 [6, 13]: ~1.78 nM | IC50 [7, 13]: 25.1 nM | BAF3-FGFR3 (PLUS IL3) pIC50 [8]: <5 | IC50 [9, 13]: 1.82 nM | BAF3-KDR (PLUS IL3) pIC50 [10]: <5 | IC50 [11, 13]: 2.19 nM | BAF3-KDR (MIN IL3) pIC50 [12]: 5.73

COc1cc(OC)c(F)c(N(CC(O)COC(C)C)c2ccc3ncc(-c4cnn(C)c4)nc3n2)c1 (single isomer, unassigned) [Compound 78]
BAF3-FGFR4 pIC50 [1]: 7.03 | IC50 [2, 13]: 2.34 nM | BAF3-FGFR3 (MIN IL3) pIC50 [3]: 7.70 | BAF3-FGFR1 (PLUS IL3) pIC50 [4]: <5 | BAF3-FGFR1 (MIN IL3) pIC50 [5]: 7.59 | IC50 [6, 13]: 2.4 nM | IC50 [7, 13]: 15.1 nM | BAF3-FGFR3 (PLUS IL3) pIC50 [8]: <5 | IC50 [9, 13]: 2.75 nM | BAF3-KDR (PLUS IL3) pIC50 [10]: <5 | IC50 [11, 13]: 2.51 nM | BAF3-KDR (MIN IL3) pIC50 [12]: 6.13

COc1cc(OC)c(F)c(N(CC(O)COC(C)C)c2ccc3ncc(-c4cnn(C)c4)nc3n2)c1 (single isomer, unassigned) [Compound 79]
BAF3-FGFR4 pIC50 [1]: 7.28 | IC50 [2, 13]: 1.66 nM | BAF3-FGFR3 (MIN IL3) pIC50 [3]: 7.63 | BAF3-FGFR1 (PLUS IL3) pIC50 [4]: <5 | BAF3-FGFR1 (MIN IL3) pIC50 [5]: 7.58 | IC50 [6, 13]: 2.34 nM | IC50 [7, 13]: 25.7 nM | BAF3-FGFR3 (PLUS IL3) pIC50 [8]: <5 | IC50 [9, 13]: 2.95 nM | BAF3-KDR (PLUS IL3) pIC50 [10]: <5 | IC50 [11, 13]: 2 nM | BAF3-KDR (MIN IL3) pIC50 [12]: 5.73

COc1ccc(Cl)c(N(CC2CCC(=O)N2)c2ccc3ncc(-c4cnn(C)c4)nc3n2)c1Cl (single isomer, unassigned) [Compound 91]
BAF3-FGFR4 pIC50 [1]: <5 | IC50 [2]: 138 nM | BAF3-FGFR3 (MIN IL3) pIC50 [3]: 5.17 | BAF3-FGFR1 (PLUS IL3) pIC50 [4]: <5 | BAF3-FGFR1 (MIN IL3) pIC50 [5]: 5.13 | IC50 [6]: 219 nM | IC50 [7]: 741 nM | BAF3-FGFR3 (PLUS IL3) pIC50 [8]: <5 | IC50 [9]: 145 nM | BAF3-KDR (PLUS IL3) pIC50 [10]: <5 | IC50 [11]: > 1000 nM | BAF3-KDR (MIN IL3) pIC50 [12]: <5

COc1cc(OC)c(F)c(N(CC2CCOC2)c2ccc3ncc(-c4cnn(C)c4)nc3n2)c1 (single isomer, unassigned) [Compound 171]
BAF3-FGFR4 pIC50 [1]: 6.55 | IC50 [2]: 1.55 nM | BAF3-FGFR3 (MIN IL3) pIC50 [3]: 7.28 | BAF3-FGFR1 (PLUS IL3) pIC50 [4]: <5 | BAF3-FGFR1 (MIN IL3) pIC50 [5]: 7.10 | IC50 [6]: 3.55 nM | IC50 [7]: ~14.5 nM | BAF3-FGFR3 (PLUS IL3) pIC50 [8]: <5 | IC50 [9]: 2.57 nM | BAF3-KDR (PLUS IL3) pIC50 [10]: <5 | IC50 [11]: 3.72 nM | BAF3-KDR (MIN IL3) pIC50 [12]: 5.63

COc1cc(OC)c(F)c(N(CC2CCOC2)c2ccc3ncc(-c4cnn(C)c4)nc3n2)c1 (single isomer, unassigned) [Compound 172]
BAF3-FGFR4 pIC50 [1]: 6.33 | IC50 [2]: 3.02 nM | BAF3-FGFR3 (MIN IL3) pIC50 [3]: ~7.06 | BAF3-FGFR1 (PLUS IL3) pIC50 [4]: <5 | BAF3-FGFR1 (MIN IL3) pIC50 [5]: 6.54 | IC50 [6]: 3.72 nM | IC50 [7]: 45.7 nM | BAF3-FGFR3 (PLUS IL3) pIC50 [8]: <5 | IC50 [9]: 4.47 nM | BAF3-KDR (PLUS IL3) pIC50 [10]: <5 | IC50 [11]: ~15.8 nM | BAF3-KDR (MIN IL3) pIC50 [12]: 5.35

COc1cc(OC)c(F)c(N(Cc2ncc[nH]2)c2ccc3ncc(-c4cnn(C)c4)nc3n2)c1 [23-Sulfate salt]
BAF3-FGFR4 pIC50 [1]: 7.88 | IC50 [2, 13]: 1.12 nM | BAF3-FGFR3 (MIN IL3) pIC50 [3]: ~8.64 | BAF3-FGFR1 (PLUS IL3) pIC50 [4]: <5 | BAF3-FGFR1 (MIN IL3) pIC50 [5]: 8.94 | IC50 [6, 13]: 0.589 nM | IC50 [7, 13]: 7.94 nM | BAF3-FGFR3 (PLUS IL3) pIC50 [8]: <5 | IC50 [9, 13]: 2.09 nM | BAF3-KDR (PLUS IL3) pIC50 [10]: <5 | IC50 [11, 13]: 1.26 nM | BAF3-KDR (MIN IL3) pIC50 [12]: 6.51
